In patent publication US20120157401A1, “METHODS FOR TREATING NEUROFIBROMATOSIS” (PTC Therapeutics, Inc., priority 2009, published 2012):

Columns and labels:
[1] = system: soluble VEGF121 and VEGF165 isoforms; experiment: Inhibition of soluble VEGF production in human tumor cell lines (ELISA, EC50); assay type: cell-based
Description: Study Design. […] In these experiments, cultures were established under normoxic conditions (21% oxygen). […] Cells requiring induction of VEGF production were incubated under hypoxic conditions (1% oxygen). At the completion of treatment, the conditioned media were collected and assayed by ELISA (as described in Section 9.1.1.1) for soluble VEGF121 and VEGF165 isoforms; results were calculated as percentage inhibition relative to vehicle treated controls. EC50 values were calculated from the dose concentration response curves.

HT1080 xenografts = experiment: HT1080 xenograft selectivity studies: tumor size; assay type: in vivo, athymic nude mice
Description: In all of these experiments, HT1080 cells (5×10^6 cells/mouse) were implanted subcutaneously in male athymic nude mice. When tumors had become established, mice were divided into groups (10 mice/group). […] Tumor size was measured by calipers at the beginning and end of treatment. At the completion of Compound administration, the mice were sacrificed, and excised tumors were assayed by ELISA for intratumoral VEGF or other angiogenic factors using methods analogous to those described in Section 9.1.1.1.

[2] = system: human VEGF121 and VEGF165; experiment: HT1080 xenograft dose response: intratumoral and pathologic plasma human VEGF ELISA; assay type: in vivo
Description: Experimental Study Design. HT1080 cells (5×10^6 cells/mouse) were implanted subcutaneously in male athymic nude mice.
Tumor size was measured using calipers at periodic intervals during the study (data shown in Section 9.2.2). […] The study was ended after 18 days, when the vehicle treated tumors reached a mean volume of ˜1755 mm^3. […] Mice were sacrificed, and excised tumors were homogenized in buffer containing protease inhibitors. Both terminal intratumoral and pathologic plasma human VEGF levels were measured using an ELISA that recognizes human VEGF121 and VEGF165 (as described in Section 9.1.1.1). Intratumoral VEGF levels were normalized to the total tumor protein concentration, while pathologic plasma human VEGF levels were expressed in pg/mL of plasma.

[3] = system: soluble VEGF121 and VEGF165 isoforms; experiment: VEGF inhibition EC50 by ELISA in the same human tumor cell lines (Table 25); assay type: cell-based
Description: Results. […] The conditioned media were collected and assayed by ELISA for soluble VEGF121 and VEGF165 isoforms (as described in Section 9.1.1.1); results were calculated as percentage inhibition relative to vehicle treated controls. EC50 values were calculated from the concentration response curves.

CYP1A2 = biological target: T1, CYP1A2 (Homo sapiens, UniProt P05177); experiment: CYP inhibition: CYP1A2; assay type: in vitro ADME; settings: human hepatic microsomes or recombinant isoenzymes
T1 construct: host or cells: human hepatic microsomes or recombinant isoenzyme (not distinguished)
Excerpt: It is possible that in certain clinical trial subjects, such agents may need to be adjusted for dosing or replaced by alternative agents that are not metabolized by CYP2D6, particularly when such agents may have a low therapeutic index.

[4] = 28-day oral toxicity study in rats (14-day recovery); assay type: in vivo
Description: A battery of genotoxicity studies was also performed. […] The L23 vehicle was used.
Exposures were maximal at 120 mg/kg/day.

tumor volume = experiment: Patients: tumor volume by MRI; assay type: in vivo, human
Excerpt: Antitumor activity: Previously used radiographic response and progression criteria (see, e.g., Widemann et al., J. Clin. Oncol., January 2006, 24(3):507-16; and di Tomaso, “Preliminary success with anti-angiogenic therapy of NF2-related tumors” (Meeting abstract) 2008 NF Conference, Children's Tumor Foundation, Bonita Springs, Fla., Jun. 6-10, 2008) can be used to evaluate the ability of a Compound to specifically induce tumor shrinkage.
Timing of Tumor Volume Assessment: Subjects may undergo tumor volume measurement at screening, and at various times throughout the treatment protocol.
Method of Assessment: The determination of antitumor efficacy may be based on objective tumor assessments made according to volumetric measurement (see Widemann et al., J Clin Oncol. 2006 Jan. 20; 24(3):507-16; di Tomaso et al., Preliminary success with anti-angiogenic therapy of NF2-related tumors. (Meeting abstract). 2008 NF Conference, Children's Tumor Foundation, Bonita Springs, Fla., Jun. 6-10, 2008; Harris et al., Neurosurgery. 2008 June 62(6): 1314-9) and treatment decisions by the physician can be based on these assessments.
The MRI examinations may be performed using a standard head coil with 1.5-T scanners. […] For VS quantitative assessment, the MRI scans may be transmitted to a Vitrea2 workstation (Vital Images, Minnetonka, Minn.) for image processing and volume calculation.

[5] = ECG and blood pressure assessments in 7-day and 28-day GLP toxicity studies
[6] = all Compound #10 dose groups (0.3-10 mg/kg, oral, 18 days)

T1 sequence (P05177 whole entry): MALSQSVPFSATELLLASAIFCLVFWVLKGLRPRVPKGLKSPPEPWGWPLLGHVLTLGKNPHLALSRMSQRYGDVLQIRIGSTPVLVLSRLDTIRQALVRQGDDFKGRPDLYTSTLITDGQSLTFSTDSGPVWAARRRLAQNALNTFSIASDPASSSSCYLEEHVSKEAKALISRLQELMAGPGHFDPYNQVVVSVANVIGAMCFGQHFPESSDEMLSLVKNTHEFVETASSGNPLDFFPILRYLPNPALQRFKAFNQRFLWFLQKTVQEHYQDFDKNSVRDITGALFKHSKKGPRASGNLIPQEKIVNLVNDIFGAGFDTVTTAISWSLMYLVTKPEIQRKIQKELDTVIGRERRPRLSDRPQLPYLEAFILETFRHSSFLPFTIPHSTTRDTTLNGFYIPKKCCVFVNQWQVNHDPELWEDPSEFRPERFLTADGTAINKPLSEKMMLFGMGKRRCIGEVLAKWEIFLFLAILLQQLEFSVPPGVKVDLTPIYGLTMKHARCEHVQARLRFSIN

`COc1ccc(C2c3[nH]c4ccc(Cl)cc4c3CCN2C(=O)Oc2ccc(Cl)cc2)cc1` (racemic) [Compound #10] gave an EC50 ([1]; A-375, Melanoma, A375, hypoxic (1% oxygen), 48 hours) of 50 nM, an EC50 ([1]; A-431, Epidermoid, A431, 48 hours) of 10 nM and an EC50 ([1]; Breast, MDA-MB-468, hypoxic (1% oxygen), 48 hours) of 5 nM. It also gave an EC50 ([1]; Cervical, HeLa, hypoxic (1% oxygen), 48 hours) of 2 nM, an EC50 ([1]; Colorectal, HCT-116, 48 hours) of 10 nM and an EC50 ([1]; Gastric, AGS, 48 hours) of 0.1 nM. The EC50 ([1]; Gastric, Kato III, hypoxic (1% oxygen), 48 hours) was 10 nM, the EC50 ([1]; HT-1080, Fibrosarcoma, HT1080, 48 hours) was 10 nM and the EC50 ([1]; Lung, A549, 48 hours) was 50 nM. The EC50 ([1]; Lung, Calu-6, hypoxic (1% oxygen), 48 hours) was 7 nM, the EC50 ([1]; Lung, NCI H460, 48 hours) was 10 nM and the EC50 ([1]; MDA-MB-231, 48 h) was 5 nM. It also gave an EC50 ([1]; Neuroblastoma, SY5Y, hypoxic (1% oxygen), 48 hours) of 5 nM, an EC50 ([1]; Pancreas, Capan-1, hypoxic (1% oxygen), 48 hours) of 5 nM and an EC50 ([1]; Prostate, LNCaP, hypoxic (1% oxygen), 48 hours) of 15 nM. It also gave an EC50 ([1]; Renal cell, HEK293, 48 hours) of 10 nM, an EC50 ([1]; SK-OV-3, Ovarian, SKOV3, hypoxic (1% oxygen), 48 hours) of 10 nM and an EC50 ([1]; SNU1, Gastric, SNU-1, 48 hours) of 0.1 nM. The “Final mean Compound #10-treated tumor size” value (HT1080 xenografts; Study 1: 1 mg/kg oral BID, 28 days) was 450 mm^3, the “Final mean Compound #10-treated tumor size” value (HT1080 xenografts; Study 2: 5 mg/kg oral BID, 7 days) was 595 mm^3 and the “Final mean Compound #10-treated tumor size” value (HT1080 xenografts; Study 3: 5 mg/kg oral BID, 10 days) was 735 mm^3. For the same molecule, the “Final mean Compound #10-treated tumor size” value (HT1080 xenografts; Study 4: 5 mg/kg oral BID, 9 days) was 953 mm^3, the “Final mean Compound #10-treated tumor size” value (HT1080 xenografts; Study 5: 5/50 mg/kg oral BID, 15 days) was 1922 mm^3 and the “Final mean Compound #10-treated tumor size” value (HT1080 xenografts; Study 6: 5 mg/kg oral QD, 21 days) was 750 mm^3. For the same molecule, the “Final mean Compound #10-treated tumor size” value (HT1080 xenografts; Study 7: 10 mg/kg oral QD, 42 days) was 1770 mm^3, the “Reduction in tumor and pathologic plasma human VEGF concentrations” value ([2]; 0.3 mg/kg BID) was “partial reductions” and the “Pathologic human VEGF levels in plasma” value [2, 6] was “significantly suppressed”. For the same molecule, the “Pathologic human VEGF levels in tumors” value [2, 6] was “significantly suppressed”, the “Reduction in tumor and pathologic plasma human VEGF concentrations” value ([2]; dose levels of ≧1 mg/kg BID) was “essentially maximal” and the EC50 ([3]; Homo sapiens, ASPC1, ASPC-1 (Pancreas), 48 hours) was greater than 30000 nM. For the same molecule, the EC50 ([3]; Homo sapiens, HCT-116, HCT116 (Colorectal), 48 hours) was 10 nM, the EC50 ([3]; Homo sapiens, HT-1080, HT1080 (Fibrosarcoma), 48 hours) was 10 nM and the EC50 ([3]; Homo sapiens, PL45, PL-45, 48 hours) was greater than 30000 nM. It also gave an EC50 ([3]; Homo sapiens, HEK293 (Renal cell), 48 hours) of 10 nM, an EC50 ([3]; Homo sapiens, HPAF-2, 48 hours) greater than 30000 nM and an EC50 ([3]; Homo sapiens, HeLa (Cervical), 48 hours) of 2 nM. The EC50 ([3]; Homo sapiens, NCI H460 (Lung), 48 hours) was 10 nM, the EC50 ([3]; Homo sapiens, U-87MG (Glioblastoma), 48 hours) was greater than 30000 nM and the EC50 ([3]; PC-3, 48 hours) was greater than 30000 nM. The “Inhibition of CYP1A2” value (CYP1A2) was “No meaningful inhibition”, the “NOAEL for 28-days” value [4] was 12 mg/kg/day and the “Dose of maximal exposures” value ([4]; 28-day oral gavage) was 120 mg/kg/day. For the same molecule, the Adrenal weights ([4]; 28-day, all dose levels) was “Increased”, the “Tumor volume, one patient (FIG. 40)” value (tumor volume) was “reducing and stabilizing tumor volume” and the “QTc values vs controls” value ([5]; males, 60 mg/kg/day, 28-day study) was “comparable to controls”. The “Increase in mean uncorrected QT value vs controls” value ([5]; males, 60 mg/kg/day, end of 28-day dosing) was 7% and the “Toxicological effects on ECG or blood pressure” value ([5]; through 120 mg/kg/day for 7-days and through 60 mg/kg/day for 28-days) was “did not have any toxicological effects”.
